Tests used:
[1] = Fixed speed rotorod, gross motor function (rat); conditions: male, Sprague-Dawley, in vivo, po
Description: On the test day following a defined drug pretreatment period, rats received a maximal electroshock (150 mA, 0.2 s duration, 60 Hz) via corneal electrodes. Protection was defined as absence of a full tonic seizure within 10 s of stimulus delivery. Twenty minutes before the MES procedure, the animals were tested on a fixed speed rotorod (best score from 3 trials at 8 r.p.m, trial duration=60 s) to give an early assessment of drug effect on gross motor function.

Rotorod (ip), mouse = conditions: in vivo, mice
MTLE mice = assay: Model of mesial temporal lobe epilepsy (mTLE), hippocampal paroxysmal discharges; type: in vivo, mouse; conditions: for Effect (% baseline): HPD; for Effect (% baseline) / Mean HPD Counts: mice 4 weeks after intra-hippocampal KA
Description: The MTLE mouse model recapitulates many of the characteristics observed in human patients with temporal lobe epilepsy (TLE). The MTLE mouse is characterized by an initial neurotoxic event, a unilateral intrahippocampal injection of kainic acid (KA) into the dorsal hippocampus, which induces non-convulsive SE lasting several hours. This initial event is followed by a latent phase. Two to three weeks after KA injection, spontaneous recurrent hippocampal paroxysmal discharges (HPD) are only recorded in the epileptic hippocampus and remain stable and stereotyped for the whole life of the animal. These HPDs occur spontaneously about 30-60 times per hour when the animals are in a state of quiet wakefulness, generally last 15-20 sec and are associated with behavioral arrest and/or mild motor automatisms. Adult, male […] mice are stereotaxically injected with kainate (1 nmol in 100 nL) and implanted with 1 bipolar electrode in the dorsal hippocampus, and then allowed to recover for four weeks prior to evaluation in the screening protocol. Using a group size of 4 MTLE mice per dose of investigational compound, the compounds are typically first tested using the 6 Hz 44 mA ED50 value. […] For all acute studies, drug conditions are counter-balanced in MTLE mice over a two week period using a Latin square dosing protocol. Animals are used as their own controls. Digital EEG recordings are performed on freely moving animals for 20 minutes pre-injection (reference period) and 90 minutes post-injection. Data are analyzed for the period of 10 minutes before and 10 minutes after peak time of effect of the investigational compound, as determined from the 6 Hz 44 mA seizure test. The effects of the injected compound are compared to the reference period. Any accompanying effect on animal behavior is noted. Data are presented as the raw number of HPDs during the analyzed 20 min period (10 minutes before and 10 minutes after peak time of effect of compound) for each MTLE mouse, group mean number of HPDs, and effect on suppression as represented by percent of baseline HPD values.

male CF-1 mouse = assay: Mouse formalin test (pain); type: in vivo; conditions: 41 mg/kg i.p.; most pronounced in second (late) phase
Description: The formalin test is performed according to the method of Tjolsen et al. Pain, 1992. 51(1). An injection of 0.5% formalin (Sigma) is made into the planter region of the right hind paw of an adult (26-30 g) male CF-1 mouse. Sub-dermal formalin injection elicits a distinct behavioral profile characterized by the mouse licking the affected paw. The behavior is characteristically biphasic in nature. For example, immediately following the injection the mouse licks the paw intensely for approximately 10 min. This is referred to as phase 1 (or, the acute phase) and is followed by a brief latent period (<5 minutes) where there is little behavioral activity. A more prolonged period of about 20-30 min of activity then ensues, which constitutes phase 2 (or, the inflammatory phase). […] The cumulative length of licking for each 2-min time period is measured. […] The area under the curve (AUG) is calculated for both the acute and inflammatory phases of the licking response for individual animals in both the test and control groups. The percent of control AUG for drug-treated animal groups is determined using the Graph-Pad Prism Version 3.03. The total AUG for each phase of the test group is also calculated and converted to percentage of total AUG of control for each phase. The average and S.E.M. for both the drug treated and control percentages are calculated and tested for significant difference.

[2] = system: Male, Sprague-Dawley rats; assay: Spinal Nerve Injury (SNI) model (neuropathic pain); type: in vivo, rat; conditions: 60 mg/kg i.p.
Description: The SNI model of neuropathic pain was developed in rats using the procedure described by Decostered and Woolf, Pain 2000, 87: 149-158. Under isoflurane anesthesia, the skin on the lateral surface of the thigh was incised and a section was made directly through the biceps femoris muscle exposing the sciatic nerve and its three terminal branches: the sural, common peroneal and tibial nerves. The common peroneal and the tibial nerves were tight-ligated with 6-0 suture and sectioned distal to the ligation, removing 2-4 mm of the distal nerve stump. Extreme care was taken to avoid any contact with or stretching of the intact sural nerve. Following surgery, hemostasis was confirmed and the muscles were sutured in layers using 4-0 suture and the skin was closed with 4-0 suture and metal clips.
Male, Sprague-Dawley rats were used. Testing of compounds was done 21 days post-operatively. After initial basal readings were taken, the test compound or vehicle was administered. The readings were taken again 30, 60 and 180 min after the compound/vehicle administration. Both the control (uninjured) and the SNI paw were tested. The presence of mechanical allodynia was assessed using the Dynamic Plantar Aesthesiometer (Ugo Basile, Italy) which is a modified version of the Von Frey Hair test. […] A single reading was taken per timepoint. […]
Cold allodynia was assessed by using the acetone test. […]

With `O=C1COc2cc(OCc3ccc(OC(F)F)cc3)ccc2N1` [Compound I(B)] the ED50 at 4 hours [1] was > 500 mg/kg, the ED50 at 0.5 hours (Rotorod (ip), mouse) was > 500 mg/kg and the “Effect (% baseline)” value (MTLE mice; after 80 mg/kg) was 42.0 % baseline. For the same compound, the “Mean HPD Counts” value (MTLE mice; after 80 mg/kg) was 7.25, the “Effect (% baseline)” value (MTLE mice; after 160 mg/kg) was 17.9 % baseline and the “Mean HPD Counts” value (MTLE mice; after 160 mg/kg) was 4.25. For the same compound, the “effect against spontaneous recurrent hippocampal paroxysmal discharges (HPD)” value (MTLE mice; dose of 125 mg/kg) was “effective”, the “number of paw licks” value (male CF-1 mouse) was “significant decrease in the number of paw licks” and the “mechanical allodynia in the denervated paw (Von Frey test)” value [2] was “effective at reducing the mechanical allodynia”. The cold allodynia ([2]; neuropathic rats) was “significantly reduced”.
